Where a name gives a salt, the structure may show the parent alone.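 Briefly, cells in 96-well plates were exposed to five compound concentrations for 48 h, and endpoints were estimated by linear interpolation. GI50 = concentration required for 50% inhibition of growth.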 Activity calls are given as the source filed them. No stated cut-off is given here; in the data, active = GI50 up to about 1.1 µM and inactive = higher.
Experiments:
Test in all cases: NCI anticancer screen, dose series, 48 h
[1] = system: CAKI-1
[2] = system: U-251
[3] = system: UO-31
[4] = system: OVCAR-4
[5] = system: SW-620
[6] = system: NCI-H23
[7] = system: DLD-1
[8] = system: NCI-H460
[9] = system: COLO 205
[10] = system: HOP-18
[11] = system: HCC 2998
[12] = system: LOX IMVI
[13] = system: SK-OV-3
[14] = system: HOP-92
[15] = system: Malme-3M
[16] = system: RPMI-8226
[17] = system: NCI-H226
[18] = system: MDA-MB-435
[19] = system: NCI/ADR-RES
[20] = system: BT-549

SMILES | GI50 [1] | GI50 [2] | GI50 [3] | GI50 [4] | GI50 [5] | GI50 [6] | GI50 [7] | GI50 [8] | GI50 [9] | GI50 [10] | GI50 [11] | GI50 [12] | GI50 [13] | GI50 [14] | GI50 [15] | GI50 [16] | GI50 [17] | GI50 [18] | GI50 [19] | GI50 [20]
O=C1CCCC/C1=C\c1ccc(Cl)c(Cl)c1 | 19.2 µM (inactive) | 16.6 µM (inactive) | 17.8 µM (inactive) | 18.2 µM (inactive) | 21.6 µM (inactive) | 23.3 µM (inactive) | 23.2 µM (inactive) | 20.1 µM (inactive) | 35.1 µM (inactive) | 18.8 µM (inactive) | 21.7 µM (inactive) | 18 µM (inactive) | 45.8 µM (inactive) |  |  |  |  |  |  | 
CC1=C(Cl)C=CP(=O)(Oc2ccccc2)C1 (stereo unspecified) | > 100 µM (inactive) | > 100 µM (inactive) | 38.3 µM (inactive) | > 100 µM (inactive) | 39.4 µM (inactive) | 45.7 µM (inactive) |  | 32.6 µM (inactive) | 27.6 µM (inactive) | 23.1 µM (inactive) | > 100 µM (inactive) | 33 µM (inactive) |  | > 100 µM (inactive) | 44.5 µM (inactive) |  |  |  |  | 
O=C(c1ccccc1)c1c(CC(O)c2ccncc2)n(C(=O)c2ccccc2)c2ccccc12 (stereo unspecified) | 22.3 µM (inactive) | 17.7 µM (inactive) | 14.6 µM (inactive) | 15.8 µM (inactive) | 18.7 µM (inactive) | 16 µM (inactive) | 26.2 µM (inactive) | 18.7 µM (inactive) | 17.9 µM (inactive) |  | 17.1 µM (inactive) |  |  | 15 µM (inactive) | 18 µM (inactive) | 19.6 µM (inactive) | 14.7 µM (inactive) |  |  | 
COc1cc(OC)c2c(O)cc(CC(C)O)cc2c1 (stereo unspecified) | > 100 µM (inactive) | 91.4 µM (inactive) | > 100 µM (inactive) | > 100 µM (inactive) | > 100 µM (inactive) | > 100 µM (inactive) | > 100 µM (inactive) | > 100 µM (inactive) | > 100 µM (inactive) | > 100 µM (inactive) | > 100 µM (inactive) | > 100 µM (inactive) | > 100 µM (inactive) | > 100 µM (inactive) | > 100 µM (inactive) | > 100 µM (inactive) |  |  |  | 
CN1CCCS/C1=C1/SC(=S)N(c2ccccc2)C1=O | > 100 µM (inactive) | > 100 µM (inactive) | > 100 µM (inactive) | > 100 µM (inactive) | > 100 µM (inactive) | > 100 µM (inactive) | > 100 µM (inactive) | > 100 µM (inactive) | > 100 µM (inactive) | > 100 µM (inactive) |  | > 100 µM (inactive) | > 100 µM (inactive) | > 100 µM (inactive) | > 100 µM (inactive) | > 100 µM (inactive) | > 100 µM (inactive) |  |  | 
CC[C@@]1(O)C(=O)OCc2c1cc1n(c2=O)Cc2cc3c(CN(C)C)c(O)ccc3nc2-1 [TOPOTECAN HYDROCHLORIDE] | 0.015 µM (active) |  |  | 0.412 µM (active) |  | 0.0217 µM (active) |  | 0.0163 µM (active) | 0.293 µM (active) | 0.254 µM (active) |  |  |  | 0.0318 µM (active) | 0.188 µM (active) | 0.276 µM (active) | 0.0225 µM (active) | 0.159 µM (active) | 0.193 µM (active) | 
COc1ccc(C(c2ccccc2)(c2ccc(OC)cc2)N2C(=O)NC3C(CCCCC(=O)NCCCCCCOP(OCCC#N)N(C(C)C)C(C)C)SCC32)cc1 (stereo unspecified) |  | 15 µM (inactive) | 14.3 µM (inactive) | 17.9 µM (inactive) | 19.8 µM (inactive) | 17 µM (inactive) | 14.8 µM (inactive) | 16.8 µM (inactive) | 21.6 µM (inactive) | 11.8 µM (inactive) | 16.6 µM (inactive) | 11.8 µM (inactive) | > 10 µM (inactive) | 19.5 µM (inactive) | 17.8 µM (inactive) | 8.34 µM (inactive) | 15 µM (inactive) |  |  | 
O=C(CCC(=O)Nc1ccc(Cl)c(Cl)c1)CC(=O)c1ccc2ccccc2c1 | 83 µM (inactive) | > 100 µM (inactive) | > 100 µM (inactive) | > 100 µM (inactive) | > 100 µM (inactive) | > 100 µM (inactive) | > 100 µM (inactive) | > 100 µM (inactive) |  | > 100 µM (inactive) | > 100 µM (inactive) | > 100 µM (inactive) |  | > 100 µM (inactive) | > 100 µM (inactive) | 39.8 µM (inactive) | > 100 µM (inactive) |  |  | 
CCOC(=O)c1c2cccccc-2nc1Nc1cccc2c(C)ccnc12 | > 10 µM (inactive) | > 10 µM (inactive) | 9.16 µM (inactive) | 4.82 µM (inactive) | > 10 µM (inactive) | > 10 µM (inactive) |  | 7.31 µM (inactive) | 7.43 µM (inactive) |  | > 10 µM (inactive) | > 10 µM (inactive) | > 10 µM (inactive) | > 10 µM (inactive) | > 10 µM (inactive) | 3.03 µM (inactive) | > 10 µM (inactive) | > 10 µM (inactive) | > 10 µM (inactive) | > 10 µM (inactive)
C/C(=N\NC(=O)C[N+](C)(C)C)c1sc(-c2cccnc2)nc1C |  | > 100 µM (inactive) | 41.2 µM (inactive) |  | > 100 µM (inactive) | > 100 µM (inactive) | > 100 µM (inactive) | > 100 µM (inactive) | > 100 µM (inactive) |  | > 100 µM (inactive) | > 100 µM (inactive) | > 100 µM (inactive) | 24.9 µM (inactive) | > 100 µM (inactive) | > 100 µM (inactive) | > 100 µM (inactive) |  |  | 
Nc1nc(Cl)cc(NCCO)n1 | > 100 µM (inactive) | > 100 µM (inactive) | > 100 µM (inactive) | > 100 µM (inactive) | > 100 µM (inactive) | > 100 µM (inactive) |  | > 100 µM (inactive) | > 100 µM (inactive) |  | 72.6 µM (inactive) | > 100 µM (inactive) | > 100 µM (inactive) | > 100 µM (inactive) | > 100 µM (inactive) | > 100 µM (inactive) | > 100 µM (inactive) | > 100 µM (inactive) | > 100 µM (inactive) | > 100 µM (inactive)
CNc1ccc([N+](=O)[O-])cc1C(=O)N1CCC[C@H]1CO | > 100 µM (inactive) | > 100 µM (inactive) | > 100 µM (inactive) | > 100 µM (inactive) | > 100 µM (inactive) | > 100 µM (inactive) |  | > 100 µM (inactive) | > 100 µM (inactive) |  | > 100 µM (inactive) | > 100 µM (inactive) | > 100 µM (inactive) | > 100 µM (inactive) | > 100 µM (inactive) | > 100 µM (inactive) | 19.5 µM (inactive) | > 100 µM (inactive) | > 100 µM (inactive) | > 100 µM (inactive)
CC(C)(C)C(=O)OCC1CCC(n2cnc3c(=O)[nH]c(N)nc32)O1 (stereo unspecified) | > 100 µM (inactive) | > 100 µM (inactive) | > 100 µM (inactive) | > 100 µM (inactive) | > 100 µM (inactive) | > 100 µM (inactive) |  | > 100 µM (inactive) | > 100 µM (inactive) | > 100 µM (inactive) | > 100 µM (inactive) | > 100 µM (inactive) | > 100 µM (inactive) | > 100 µM (inactive) | > 100 µM (inactive) | > 100 µM (inactive) | > 100 µM (inactive) |  |  | 
Cn1cc2ccccc2c1-c1nc(F)nc(Nc2ccc(N)cc2)n1 | 15 µM (inactive) | 8.28 µM (inactive) | 17.3 µM (inactive) | 23.1 µM (inactive) | 14.8 µM (inactive) | 15.8 µM (inactive) | 13 µM (inactive) | 13.5 µM (inactive) | > 10 µM (inactive) |  | 18 µM (inactive) | 12.4 µM (inactive) | 11.6 µM (inactive) | 15.1 µM (inactive) | 14.4 µM (inactive) | 13.3 µM (inactive) | 16.5 µM (inactive) |  |  | 
COc1ccc(Sc2ccccc2[N+](=O)[O-])cc1 |  | 10.4 µM (inactive) | 23.4 µM (inactive) | 65.3 µM (inactive) | 3.65 µM (inactive) | 31.2 µM (inactive) | 24.8 µM (inactive) | 16.8 µM (inactive) | 5.69 µM (inactive) | > 100 µM (inactive) | 8.36 µM (inactive) | 12.9 µM (inactive) | 39.1 µM (inactive) | 18.7 µM (inactive) | 13 µM (inactive) | 25.5 µM (inactive) | 13 µM (inactive) |  |  | 
NC(=O)c1ncn(Cc2ccccc2)c1CNC(N)=S |  | > 100 µM (inactive) | > 100 µM (inactive) | > 100 µM (inactive) | > 100 µM (inactive) | > 100 µM (inactive) | > 100 µM (inactive) | > 100 µM (inactive) | > 100 µM (inactive) | > 100 µM (inactive) | > 100 µM (inactive) | > 100 µM (inactive) | > 100 µM (inactive) |  |  | > 100 µM (inactive) | > 100 µM (inactive) |  |  | 
CCCCN(CCCC)C(=O)C(=O)C(C(=O)c1ccc(OC)cc1)c1ccc(OC)cc1 (stereo unspecified) | > 100 µM (inactive) | > 100 µM (inactive) | > 100 µM (inactive) | > 100 µM (inactive) | > 100 µM (inactive) | > 100 µM (inactive) | > 100 µM (inactive) | > 100 µM (inactive) | > 100 µM (inactive) | > 100 µM (inactive) | > 100 µM (inactive) | > 100 µM (inactive) | > 100 µM (inactive) | 27.4 µM (inactive) | > 100 µM (inactive) |  | > 100 µM (inactive) |  |  | 
